Data set [1] is described as follows: Induction of cell cycle arrest in human CD34+ cells assessed as accumulation at S phase at 0.1 uM incubated for 24 hrs by flow cytometry (reference value: 27.5 +/- 5.8%). The settings on record: cd34-positive (myeloid/lymphoid) cell. Type of data set: toxicity, cell-based.
In a further data set the test system is SJSA-1. Description: Cytotoxicity against human SJSA-1 cells incubated for 72 hrs in presence of 10% FBS by MTT assay. The conditions noted are these: SJSA-1, 72 h.
Data set [2] can be described thus: Plasma protein binding in rat at 2 to 50 uM. Type of data set: ADME, cell-free. The conditions noted are these: dose 2-50 µM, read-out: PPB (converted).
Data set [3] relates to Fibroblast. In words: Protection against chemotherapy-induced apoptosis in human fibroblast assessed as decrease in caspase-3/7 level preincubated for 16 hrs followed by gemcitabine.HCl addition measured after 32 hrs. Type of data set: functional, cell-based. The settings on record: dose 4.6-10 µM, time 48.0 hrs.
Data set [4] is described as follows: Induction of cell cycle arrest in human CD34+ cells assessed as accumulation at S phase at 2.5 uM incubated for 24 hrs by flow cytometry (reference value: 27.5 +/- 5.8%). Type of data set: toxicity, cell-based. The settings on record: cd34-positive (myeloid/lymphoid) cell.
Another data set deals with BT-474. In words: […] chemotherapy-induced apoptosis in human BT-474 cells assessed as decrease in caspase-3/7 level at 4.6 to 10 uM preincubated for 16 hrs followed by docetaxel addition measured after 32 hrs. The format is functional, cell-based. The settings on record: dose 4.6-10 µM, time 48.0 hrs.
For another data set, the system named is Bone marrow cell. Description: Downregulation of Ki67 expression level in bone marrow cells of C57BL/6 mouse at 2.4 mg/kg, iv administered every 8 hrs measured for 16 hrs by immunohistochemical analysis. The format is functional, organism-based.
Data set [5] can be described thus: Half life in rat at 2.5 mg/kg by LC-MS/MS analysis. The conditions noted are these: in vivo. Type of data set: ADME, organism-based.
Data set [6] can be described thus: Clearance in mouse at 5 mg/kg by LC-MS/MS analysis. The format is ADME, organism-based. The conditions noted are these: in vivo.
A short description of data set [7]: Half life in rat at 10 mg/kg by LC-MS/MS analysis. The format is ADME, organism-based. The conditions noted are these: in vivo.
Another data set has as its system Mus musculus. In words: Protection against topotecan-induced neutropenia in C57BL/6 mouse assessed as increase in neutrophil level at 2.4 mg/kg administered on day 0 to 4 and co-administered 30 mins prior to topotecan on day 1 to 4 followed by topotecan administration on day 5 measured on day 7 by CBC analysis relative to control. The settings on record: time 7 day. Type of data set: functional.

The nature of data set [8]: Drug uptake in plasma of athymic nu/nu mouse xenografted with human SJSA-1 cells assessed as half life of metabolite ALRN-8714 at 25 mg/kg, iv measured for 24 hrs by LC-MS-MS analysis. Type of data set: ADME, organism-based. The conditions noted are these: in vivo.
The subject of data set [9] is Fibroblast. Description: Protection against chemotherapy-induced apoptosis in human fibroblast assessed as decrease in caspase-3/7 level preincubated for 16 hrs followed by carboplatin addition measured after 32 hrs. The format is functional, cell-based. The conditions noted are these: dose 4.6-10 µM, time 48.0 hrs.
The nature of data set [10]: Plasma protein binding in dog at 2 to 50 uM. The format is ADME, cell-free, Canis lupus familiaris. The conditions noted are these: dose 2-50 µM, read-out: PPB (converted).

Each structure is given as a SMILES string. Calls of active or inactive are those of the source. No cut-off for these calls is given here.

`CC(=O)N[C@@H](CC(C)C)C(=O)N[C@H](C(=O)N[C@@H](Cc1ccccc1)C(=O)N[C@]1(C)CCCCCC/C=C/CCC[C@@](C)(C(=O)N[C@@H](C)C(=O)N[C@@H](C)C(=O)N[C@@H](C)C(=O)N[C@@H](C)C(=O)N[C@@H](C)C(=O)N[C@H](C)C(N)=O)NC(=O)[C@H](CC(C)C)NC(=O)[C@H](CCC(N)=O)NC(=O)[C@H](C)NC(=O)[C@H](Cc2c[nH]c3ccccc23)NC(=O)[C@H](Cc2ccc(O)cc2)NC(=O)[C@H](CCC(=O)O)NC1=O)[C@@H](C)O`: the Activity in data set [1] is 21.35%; in the data set on Fibroblast [3], “Dose-Dependent Effect”; in data set [4], 0.5%; in the data set on Mus musculus, 84%; in the data set on Fibroblast [9], “Dose-Dependent Effect”. Further, the EC50 with SJSA-1 is 300 nM. The fraction unbound at up to 50 µM in data set [2] and in data set [10] was 0.08 throughout. Further, in the data set with BT-474, the result was inactive. For the same compound, the outcome in the data set on Bone marrow cell was Active. Further, the half-life in data set [5] was 1.4 h; in data set [7], 3.8 h. The compound also had a clearance in data set [6] of 0.183 mL/min/kg. Also, the t1/2 in [8] amounted to 8.4 h.

Source of the values: ChEMBL document CHEMBL5346962, “Discovery of Sulanemadlin (ALRN-6924), the First Cell-Permeating, Stabilized α-Helical Peptide in Clinical Development” (J Med Chem, 2023).
